Patent publication US4981847A, “Tricyclic compounds” (Fujisawa Pharmaceutical Co., Ltd., priority 1988, dated 1991)

Legend:
[1] = system: caerulein-induced pancreatitis; assay: Inhibitory effect on caerulein-induced pancreatitis in mice; assay type: in vivo; details: Mus musculus
Text: (D) Inhibitory effect of test compound B on caerulein-induced pancreatitis in mice.

[2] = biological target: T1, rat pancreatic CCK receptors (Rattus norvegicus, UniProt P30551); assay: Inhibition of binding of [125I] CCK-8 to rat pancreatic CCK receptors
T1 construct: rat pancreatic CCK receptors; from tissue; host or cells: rat pancreas
T1 sequence (P30551 1-444): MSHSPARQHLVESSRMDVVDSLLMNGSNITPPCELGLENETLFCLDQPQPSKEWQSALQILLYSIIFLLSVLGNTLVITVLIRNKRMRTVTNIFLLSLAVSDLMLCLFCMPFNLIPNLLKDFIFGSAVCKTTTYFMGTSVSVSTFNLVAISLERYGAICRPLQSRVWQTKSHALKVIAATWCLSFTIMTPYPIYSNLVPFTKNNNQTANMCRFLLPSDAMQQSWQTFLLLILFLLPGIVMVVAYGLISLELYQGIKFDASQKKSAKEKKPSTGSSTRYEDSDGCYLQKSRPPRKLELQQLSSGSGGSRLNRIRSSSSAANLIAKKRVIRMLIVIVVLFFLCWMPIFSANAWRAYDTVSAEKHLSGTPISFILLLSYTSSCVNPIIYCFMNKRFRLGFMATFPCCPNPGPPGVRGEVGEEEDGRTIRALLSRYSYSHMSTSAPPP
Text: (B) Inhibition of binding of [^125 I] CCK-8 to rat pancreatic CCK receptors by test compound B (CCK antagonism).

[3] = system: CCK-8-induced inhibition of gastric emptying; assay: Effect upon CCK-8-induced inhibition of gastric emptying in mice (CCK antagonism); assay type: in vivo; details: Mus musculus
Text: Effect of test compound B upon CCK-8-induced inhibition of gastric emptying in mice (CCK antagonism).

[4] = biological target: T2, guinea pig cerebral cortical CCK receptors (Cavia porcellus, UniProt H0VZC5); assay: Inhibition of binding of [125I] CCK-8 to guinea pig cerebral cortical CCK receptors
T2 construct: guinea pig cerebral cortical CCK receptors; from tissue; host or cells: guinea pig cerebral cortex
Text: (C) Inhibition of binding of [^125 I] CCK-8 to guinea pig cerebral cortical CCK receptors by test compound B (CCK antagonism).

CCK receptor = CCK receptor antagonism in isolated fundic circular muscle from guinea pig stomach; assay type: cell-based; details: test compound 1×10^-6 M, CCK-8 3.2×10^-7 M, 37° C.
Description: (A) CCK receptor antagonism in isolated fundic circular muscle from guinea pig stomach
The strip of circular muscle suspended in 25 ml organ bath containing Krebs' bicarbonate solution (NaCl 118 mM, KCl 4.8 mM, KH2 PO4 1.2 mM, MgSO4 1.2 mM, CaCl2 2.5 mM, NaHCO3 25 mM, glucose 11 mM and bovine serum albumin 0.1%) maintained at 37° C. and gassed with 95% O2 and 5% CO2.
The strip was placed under an initial tension of 0.5 g and equilibrated for 60 minutes during which the bath volume was replaced every 15 minutes. Isometric contraction was measured using a force transducer. CCK-8 (3.2×10^-7 M) was added to the bathing solution and the contractile force was measured After washing out CCK-8, test compound A (1×10^-6 M) was added. 5 minutes later, CCK-8 was added and the contractile force was measured. CCK antagonism was calculated by comparing the contractile force induced by CCK in the absence or presence of test compound A.

T2 sequence (H0VZC5 entry or part of it): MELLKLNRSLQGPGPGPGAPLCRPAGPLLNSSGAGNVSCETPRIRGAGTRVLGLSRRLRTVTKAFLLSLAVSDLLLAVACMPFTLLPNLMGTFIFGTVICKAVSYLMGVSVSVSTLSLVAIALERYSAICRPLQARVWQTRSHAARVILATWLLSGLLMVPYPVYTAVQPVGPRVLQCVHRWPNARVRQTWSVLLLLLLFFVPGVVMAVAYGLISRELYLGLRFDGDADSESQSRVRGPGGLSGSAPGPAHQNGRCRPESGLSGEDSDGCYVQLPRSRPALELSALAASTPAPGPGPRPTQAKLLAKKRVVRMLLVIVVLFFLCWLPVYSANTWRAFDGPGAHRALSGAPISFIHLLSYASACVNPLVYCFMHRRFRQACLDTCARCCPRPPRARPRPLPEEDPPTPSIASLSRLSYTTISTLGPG

| Structure (SMILES) | ED50 [1] [mg/kg] | IC50 [2] [nM] | ED50 [3] [mg/kg] | IC50 [4] [nM] | Inhibition (%) of CCK-8-induced contraction (CCK receptor) [%] |
| --- | --- | --- | --- | --- | --- |
| O=C(N[C@H]1N=C(c2ccccc2F)c2cccc3c2N(CC3)C1=O)c1cc2ccccc2[nH]1 [test compound B, (3S)-1-(2-Fluorophenyl)-3,4,6,7,-tetrahydro-3-(2-indolylcarbonylamino)-4-oxopyrrolo[3,2,1-jk][1,4]-benzodiazepine] | 0.022 | 0.67 | 0.01 | 31 | – |
| O=C(NC1N=C(c2ccccc2F)c2cccc3c2N(CC3)C1=O)c1cc2ccccc2[nH]1 (racemic) [test compound A, (3RS)-1-(2-Fluorophenyl)-3,4,6,7-tetrahydro-3-(2-indolylcarbonylamino)-4-oxopyrrolo[3,2,1-jk][1,4]benzodiazepine] | – | – | – | – | 90.4 |
